{"source": "ChEMBL document CHEMBL4295262", "about": "“Evaluation of the utility of stem-cell derived cardiomyocytes for drug proarrhythmic potential” (2019)", "key": {"[1]": {"experiment": "(§1) Electrical activity assay on cell lines treated with a given drug. DMSO was used as a vehicle and a control, unblinded dofetilide was used as a control.", "format": "ADME, cell-based", "conditions": "human, ipsc-cm, 0.005 µM; concentration (um) 0.005 uM"}, "[2]": {"experiment": "as §1", "format": "cell-based", "set-up": "APDc: unit not given here", "conditions": "human, ipsc-cm"}, "[3]": {"experiment": "as §1", "format": "ADME, cell-based", "conditions": "human, ipsc-cm, 0.003 µM; concentration (um) 0.003 uM"}, "[4]": {"experiment": "as §1", "conditions": "human, ipsc-cm, 0.003 µM"}, "[5]": {"experiment": "as §1", "format": "ADME, cell-based", "set-up": "FPDc: unit not given here", "conditions": "human, ipsc-cm, 0.003 µM; concentration (um) 0.003 uM"}, "[6]": {"experiment": "as §1", "conditions": "human, ipsc-cm"}, "[7]": {"experiment": "as §1", "conditions": "human, ipsc-cm", "remark": "listed apart in the source"}, "[8]": {"experiment": "as §1", "conditions": "human, ipsc-cm", "remark": "listed apart in the source"}, "[9]": {"experiment": "as §1", "format": "ADME, cell-based", "set-up": "FPDc: unit not given here", "conditions": "human, ipsc-cm"}, "[10]": {"conditions": "0.0003169 µM, concentration (um) 0.000316912 uM"}, "[11]": {"conditions": "0.001001 µM, concentration (um) 0.00100144 uM"}, "[12]": {"conditions": "0.003165 µM, concentration (um) 0.00316456 uM"}, "[13]": {"conditions": "0.005 µM, concentration (um) 0.005 uM"}, "[14]": {"conditions": "0.0032 µM, concentration (um) 0.0032 uM"}, "[15]": {"conditions": "0.01 µM, concentration (um) 0.01 uM"}}, "data": [{"smiles": "CN(CCOc1ccc(NS(C)(=O)=O)cc1)CCc1ccc(NS(C)(=O)=O)cc1", "note": "[DOFETILIDE]", "values": [{"measurement": "FPD measurement", "setting": "[1]", "value": 59.84, "unit": "FPDc"}, {"measurement": "FPDc", "setting": "[1]", "value": "24 Values Out Of 24 Were Excluded Due To Quiescence Or 0 Fpdc"}, {"measurement": "APDc", "setting": "[2]; [10]", "value": 62.54}, {"measurement": "FPD measurement", "setting": "[2]; [10]", "value": 62.54, "unit": "FPDc"}, {"measurement": "APDc", "setting": "[2]; [11]", "value": 77.55}, {"measurement": "FPD measurement", "setting": "[2]; [11]", "value": 77.55, "unit": "FPDc"}, {"measurement": "APDc", "setting": "[2]; [12]", "value": 79.29}, {"measurement": "FPD measurement", "setting": "[2]; [12]", "value": 79.29, "unit": "FPDc"}, {"measurement": "APDc", "setting": "[2]; [13]", "value": 61.92}, {"measurement": "FPD measurement", "setting": "[2]; [13]", "value": 61.92, "unit": "FPDc"}, {"measurement": "FPD measurement", "setting": "[3]", "value": "More Than Half The Wells Had A Quiescence Event Or Apdc Readings Of 0"}, {"measurement": "FPDc", "setting": "[3]", "value": "More Than Half The Wells Had A Quiescence Event Or Fpdc Readings Of 0"}, {"measurement": "APDc", "setting": "[4]", "value": 63.81}, {"measurement": "FPD measurement", "setting": "[4]", "value": 63.81, "unit": "FPDc"}, {"measurement": "FPDc", "setting": "[5]", "value": 32.45}, {"measurement": "FPD measurement", "setting": "[6]; 0.0003169 µM", "value": 57.26, "unit": "FPDc"}, {"measurement": "FPDc", "setting": "[6]; 0.0003169 µM", "value": 57.26}, {"measurement": "FPD measurement", "setting": "[6]; 0.001001 µM", "value": 62.9, "unit": "FPDc"}, {"measurement": "FPDc", "setting": "[6]; 0.001001 µM", "value": 62.9}, {"measurement": "FPD measurement", "setting": "[6]; 0.003 µM", "value": 58.92, "unit": "FPDc"}, {"measurement": "FPDc", "setting": "[6]; 0.003 µM", "value": 58.92}, {"measurement": "FPD measurement", "setting": "[6]; 0.003165 µM", "value": 74.44, "unit": "FPDc"}, {"measurement": "FPDc", "setting": "[6]; 0.003165 µM", "value": 74.44}, {"measurement": "FPD measurement", "setting": "[6]; 0.0033 µM", "value": 77.41, "unit": "FPDc"}, {"measurement": "FPDc", "setting": "[6]; 0.0033 µM", "value": 77.41}, {"measurement": "FPD measurement", "setting": "[6]; 0.01 µM", "value": "More Than Half The Wells Had A Quiescence Event Or Fpdc Readings Of 0"}, {"measurement": "FPDc", "setting": "[6]; 0.01 µM", "value": "More Than Half The Wells Had A Quiescence Event Or Fpdc Readings Of 0"}, {"measurement": "FPD measurement", "setting": "[7]; 0.0003169 µM", "value": "5 Values Out Of 5 Were Excluded Due To Quiescence Or 0 Apdc"}, {"measurement": "FPDc", "setting": "[7]; 0.0003169 µM", "value": 74.54}, {"measurement": "FPD measurement", "setting": "[7]; 0.001001 µM", "value": "5 Values Out Of 5 Were Excluded Due To Quiescence Or 0 Apdc"}, {"measurement": "FPDc", "setting": "[7]; 0.001001 µM", "value": 77.51}, {"measurement": "FPDc", "setting": "[7]; 0.003 µM", "value": 91.98}, {"measurement": "FPD measurement", "setting": "[7]; 0.003165 µM", "value": "5 Values Out Of 5 Were Excluded Due To Quiescence Or 0 Apdc"}, {"measurement": "FPDc", "setting": "[7]; 0.003165 µM", "value": 81.19}, {"measurement": "FPD measurement", "setting": "[7]; 0.01 µM", "value": "5 Values Out Of 5 Were Excluded Due To Quiescence Or 0 Apdc"}, {"measurement": "FPDc", "setting": "[7]; 0.01 µM", "value": "More Than Half The Wells Had A Quiescence Event Or Fpdc Readings Of 0"}, {"measurement": "FPD measurement", "setting": "[8]; 0.0003169 µM", "value": "1 Values Out Of 1 Were Excluded Due To Quiescence Or 0 Fpdc"}, {"measurement": "FPDc", "setting": "[8]; 0.0003169 µM", "value": "1 Values Out Of 1 Were Excluded Due To Quiescence Or 0 Fpdc"}, {"measurement": "FPD measurement", "setting": "[8]; 0.001001 µM", "value": "1 Values Out Of 1 Were Excluded Due To Quiescence Or 0 Fpdc"}, {"measurement": "FPDc", "setting": "[8]; 0.001001 µM", "value": "1 Values Out Of 1 Were Excluded Due To Quiescence Or 0 Fpdc"}, {"measurement": "FPD measurement", "setting": "[8]; 0.003165 µM", "value": "1 Values Out Of 1 Were Excluded Due To Quiescence Or 0 Fpdc"}, {"measurement": "FPDc", "setting": "[8]; 0.003165 µM", "value": "1 Values Out Of 1 Were Excluded Due To Quiescence Or 0 Fpdc"}, {"measurement": "FPD measurement", "setting": "[8]; 0.01 µM", "value": "1 Values Out Of 1 Were Excluded Due To Quiescence Or 0 Fpdc"}, {"measurement": "FPDc", "setting": "[8]; 0.01 µM", "value": "1 Values Out Of 1 Were Excluded Due To Quiescence Or 0 Fpdc"}, {"measurement": "FPDc", "setting": "[9]; 0.0003 µM, concentration (um) 0.0003 uM", "value": 0.03867}, {"measurement": "FPDc", "setting": "[9]; 0.001 µM, concentration (um) 0.001 uM", "value": 0.04061}, {"measurement": "FPDc", "setting": "[9]; 0.003 µM, concentration (um) 0.003 uM", "value": 0.05119}, {"measurement": "FPD measurement", "setting": "[9]; [14]", "value": "More Than Half The Wells Had A Quiescence Event Or Fpdc Readings Of 0"}, {"measurement": "FPDc", "setting": "[9]; [14]", "value": "More Than Half The Wells Had A Quiescence Event Or Fpdc Readings Of 0"}, {"measurement": "FPD measurement", "setting": "[9]; [15]", "value": "More Than Half The Wells Had A Quiescence Event Or Fpdc Readings Of 0"}, {"measurement": "FPDc", "setting": "[9]; [15]", "value": "More Than Half The Wells Had A Quiescence Event Or Fpdc Readings Of 0"}]}]}
